This is an account of results in patent EP0489933A1, “BILE ALCOHOL AND DRUG CONTAINING THE SAME AS ACTIVE INGREDIENT” (TSUMURA CO., LTD., priority 1990, dated 1992).

In one data set the test system is red blood cells. In words: Inhibition of thermal hemolysis of red blood cells. The class given is cell-based, donryu rats. Particulars: 53°C for 20 minutes; for inhibition at 10 µM / inhibition at 50 µM / inhibition at 100 µM / inhibition at 200 µM / inhibition at 500 µM: Rattus norvegicus, Erythrocyte, 20 min, read-out: Hemolysis Inhibition Ratio (%) against Control. Here is the method:
Blood was collected from donryu rats of 150 to 200 g in body weight and centrifuged at 1,500 rpm for 5 minutes to obtain red blood cells. The red blood cells thus collected were diluted with 0.15 M phosphate buffer (pH 7.4) to prepare a 5% red blood cell suspension. A 3.8 ml portion of the thus prepared suspension was mixed with 0.2 ml solution of each compound of the present invention which has been adjusted to each level of the concentrations as shown in the following table, and the resulting mixture was shaken thoroughly and incubated at 53°C for 20 minutes. Thereafter, the thus incubated mixture was cooled rapidly with tap water and centrifuged at 3,000 rpm for 15 minutes, and absorbance at 540 nm of the resulting supernatant fluid was measured using a spectrophotometer (Hitachi: Type 200-20). Inhibition rate (%) of red blood cell hemolysis at each concentration of the compound was calculated based on the absorbance, with the results shown in Table 8.

The subject of data set [1] is platelet rich plasma (PRP). In words: Platelet aggregation in platelet rich plasma after oral administration. The class given is in vivo, male rat. As to conditions: 30 mg/kg, p.o., blood 90 minutes after administration. The method, then: Each drug to be tested was orally administered to each male rat which has been subjected to fasting treatment for 18 to 24 hours. After 90 minutes of the administration, median incision ventrotomy was carried out under ether anesthesia to collect 9 volumes of blood using a syringe filled with 1 volume of 3.8% sodium citrate solution (3.8% sodium citrate solution:blood = 1:9). After thorough mixing, the thus prepared mixture was centrifuged at 800 rpm for 10 minutes at room temperature to collect the resulting supernatant fluid as platelet rich plasma (PRP). The residual portion was centrifuged at 3,000 rpm for 15 minutes at room temperature to collect the resulting supernatant fluid as platelet poor plasma (PPP). The PRP was diluted with the PPP to adjust the number of platelets to 3×10⁵ ± 2×10⁴ cells/µl. A 450 µl portion of the thus diluted PRP was incubated at 37°C for 3 minutes and then mixed with 50 µl of 1×10⁻⁵ M of ADP or 1×10⁻⁵ g/ml of collagen. Thereafter, platelet aggregation test of the mixture was carried out using an aggregometer by measuring transmittance at 940 nm.

The nature of another data set: Qualitative solubility. The format is physicochemical.
Data set [2] in a line: Blood plasma clotting time after oral administration. As to conditions: 30 mg/kg, p.o.; blood collected 90 minutes after administration; calcium chloride, 37°C. The class given is in vivo, male rats of Wistar line. The method, then: In this experiment, 9-week-old male rats of Wistar line (5 to 6 individuals per one group) were used after rearing them for 1 week with normal feed. After 24 hours of fasting, each test drug was administered orally and, 90 minutes thereafter, blood sample was collected from lower abdominal vena cava of each rat under anesthesia with Nembutal® (1 ml/kg, i.p.). Blood samples obtained in this way were checked for their blood clotting time and erythrocyte deformability.
Measuring procedures are as follows.
Blood clotting time ... Collected blood sample is centrifuged at 3,500 rpm for 10 minutes to obtain blood plasma. The blood plasma is pre-incubated for 1 minute in a water bath controlled at 37°C, mixed with calcium chloride and then shaken at 20 second intervals to measure a time required for its clotting.

On to `C[C@H](CC[C@H]1OC[C@H]1CO)[C@H]1CC[C@H]2[C@@H]3[C@H](O)C[C@@H]4C[C@H](O)CC[C@]4(C)[C@H]3C[C@H](O)[C@]12C` [Example 4, (24R)-(25R)-(+)-24,26-epoxy-5β-cholestane-3α,7α,12α,27-tetrol], for which the inhibition at 10 µM in the data set on red blood cells (0.01 mM) is 27%. Further, in the data set on red blood cells (0.05 mM), the inhibition at 50 µM stood at 21%. The inhibition at 100 µM in the data set with red blood cells (0.1 mM) was determined as 31%. The inhibition at 200 µM in the data set with red blood cells (0.2 mM) came to 44%. Besides, the inhibition at 500 µM with red blood cells (0.5 mM) was determined as 48%. For the same compound, the entries for the “Platelet Aggregation Ratio ±S.E.” value in data set [1] (ADP (1×10⁻⁵ M)) and in data set [1] (Collagen (1×10⁻⁵ g/ml)) were 46.1 ± 2.65% and 47.7 ± 3.88%, respectively. In addition, in the data set “Qualitative solubility”, the “solubility in H₂O” value was “insol in H₂O”.
Turning to `C[C@H](CC[C@@H](O)C1COC1)[C@H]1CC[C@H]2[C@@H]3[C@H](O)C[C@@H]4C[C@H](O)CC[C@]4(C)[C@H]3C[C@H](O)[C@]12C` [Example 5, (24R)-(+)-26,27-epoxy-5β-cholestane-3α,7α,12α,24-tetrol], the inhibition at 10 µM in the data set with red blood cells (0.01 mM) amounted to 23%. Besides, the inhibition at 50 µM in the data set with red blood cells (0.05 mM) came to 19%. Besides, the inhibition at 100 µM in the data set on red blood cells (0.1 mM) came out at 30%. Also, the inhibition at 200 µM with red blood cells (0.2 mM) was found to be 41%. The inhibition at 500 µM in the data set with red blood cells (0.5 mM) came out at 61%. Besides, the entries for the “Platelet Aggregation Ratio ±S.E.” value in data set [1] (ADP (1×10⁻⁵ M)) and in data set [1] (Collagen (1×10⁻⁵ g/ml)) were 48.5 ± 3.31% and 48.1 ± 2.65%, respectively. The “solubility in H₂O” value in the data set “Qualitative solubility” was “insol in H₂O”.
Turning to `C[C@H](CC[C@@H](O)CCO)[C@H]1CC[C@H]2[C@@H]3[C@H](O)C[C@@H]4C[C@H](O)CC[C@]4(C)[C@H]3C[C@H](O)[C@]12C` [Illustrative Example 2, 27-nor-(24R)-(+)-3α,7α,12α,24,26-pentahydroxy-5β-cholestane], the “Hemolysis Inhibition Ratio (%) against Control” value in the data set on red blood cells (0.01 mM) came to 31%; in the data set with red blood cells (0.05 mM) it was 23%; with red blood cells (0.1 mM), 38%; in the data set with red blood cells (0.2 mM), 60%; in the data set on red blood cells (0.5 mM), 71%. Besides, the “Platelet Aggregation Ratio ±S.E.” value is on record as 51.5 ± 1.55% in data set [1] (ADP (1×10⁻⁵ M)) and 44.4 ± 4.51% in data set [1] (Collagen (1×10⁻⁵ g/ml)). Also, in data set [2], the “Plasma Clotting Time ± S.E.” value came out at 201 ± 4.1 s.
Take `C[C@H](CC[C@H](O)CCO)[C@H]1CC[C@H]2[C@@H]3[C@H](O)C[C@@H]4C[C@H](O)CC[C@]4(C)[C@H]3C[C@H](O)[C@]12C` [Illustrative Example 3, 27-nor-(24S)-(+)-3α,7α,12α,24,26-pentahydroxy-5β-cholestane]: the “Hemolysis Inhibition Ratio (%) against Control” value was 38% in the data set with red blood cells (0.01 mM); 31% in the data set on red blood cells (0.05 mM); 22% with red blood cells (0.1 mM); 41% in the data set on red blood cells (0.2 mM); 61% with red blood cells (0.5 mM). Further, the entries for the “Platelet Aggregation Ratio ±S.E.” value in data set [1] (ADP (1×10⁻⁵ M)) and in data set [1] (Collagen (1×10⁻⁵ g/ml)) were 50.3 ± 1.38% and 45.5 ± 2.66%, respectively. Besides, the “Plasma Clotting Time ± S.E.” value in data set [2] is 213 ± 5.5 s.
